Test results from PubChem BioAssay AID2060619 (Molecular Pharmacology Branch, DTP, NCI, 2025).
Where “and” joins values, the source holds several entries; their conditions need not be identical. Equal entries are not always repeated.

Test system: 323965-272-R-J2-PDC complex spheroid viability
Assay: Anticancer human tumor 323965-272-R-J2-PDC patient-derived pancreatic carcinoma cell line growth inhibition [CLK]
Conditions: for viability, T/C: stronger effect = lower value
Outline: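 Patient-derived tumor cells grown as complex spheroids with HUVEC endothelial cells and mesenchymal stem cells, treated with drug combinations. Concentrations descend in half-log steps from near clinical Cmax, or from 10 microM if Cmax unknown.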

[1] = curve of first compound, second compound 0.0316 µM
[2] = curve of first compound, second compound 0.1 µM
[3] = curve of first compound, second compound 0.316 µM
[4] = curve of first compound, second compound 1 µM
[5] = curve of first compound, second compound 3.16 µM
[6] = curve of first compound, second compound 10 µM
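Further: spheroids exposed to agents for seven days before readout.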
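Wherever viability, T/C is given: percent of DMSO vehicle control wells so 100% = untreated growth.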

SMILES: Nc1ccccc1NC(=O)c1ccc(CNC(=O)OCc2cccnc2)cc1 + CN1CCN(c2cc(C(=O)Nc3cc4cc(-c5cnn(C)c5)ccc4cn3)ccn2)CC1
- IC50 [1]: 6960 nM
- IC50 [2]: 3000 nM
- IC50 [3]: < 31.6 nM
- IC50 [4]: < 31.6 nM
- IC50 [5]: < 31.6 nM
- IC50 [6]: < 31.6 nM
- viability, T/C (second compound 0.0316 µM, first compound 0.0316 µM): 92.1%
- viability, T/C (second compound 0.0316 µM, first compound 0.1 µM): 92.3%
- viability, T/C (second compound 0.0316 µM, first compound 0.316 µM): 93.6%
- viability, T/C (second compound 0.0316 µM, first compound 1 µM): 99%
- viability, T/C (second compound 0.0316 µM, first compound 3.16 µM): 63.5%
- viability, T/C (second compound 0.0316 µM, first compound 10 µM): 43.8%
- viability, T/C (second compound 0.1 µM, first compound 0.0316 µM): 79%
- viability, T/C (second compound 0.1 µM, first compound 0.1 µM): 75.9%
- viability, T/C (second compound 0.1 µM, first compound 0.316 µM): 80%
- viability, T/C (second compound 0.1 µM, first compound 1 µM): 78.7%
- viability, T/C (second compound 0.1 µM, first compound 3.16 µM): 48.6%
- viability, T/C (second compound 0.1 µM, first compound 10 µM): 30.6%
- viability, T/C (second compound 0.316 µM, first compound 0.0316 µM): 26.4%
- viability, T/C (second compound 0.316 µM, first compound 0.1 µM): 24.6%
- viability, T/C (second compound 0.316 µM, first compound 0.316 µM): 21.4%
- viability, T/C (second compound 0.316 µM, first compound 1 µM): 21.8%
- viability, T/C (second compound 0.316 µM, first compound 3.16 µM): 17.1%
- viability, T/C (second compound 0.316 µM, first compound 10 µM): 16.8%
- viability, T/C (second compound 1 µM, first compound 0.0316 µM): 3.43%
- viability, T/C (second compound 1 µM, first compound 0.1 µM): 3.41%
- viability, T/C (second compound 1 µM, first compound 0.316 µM): 4.13%
- viability, T/C (second compound 1 µM, first compound 1 µM): 2.18%
- viability, T/C (second compound 1 µM, first compound 3.16 µM): 2.06%
- viability, T/C (second compound 1 µM, first compound 10 µM): 0.81%
- viability, T/C (second compound 3.16 µM, first compound 0.0316 µM): 3.66%
- viability, T/C (second compound 3.16 µM, first compound 0.1 µM): 5.59%
- viability, T/C (second compound 3.16 µM, first compound 0.316 µM): 6.21%
- viability, T/C (second compound 3.16 µM, first compound 1 µM): 4.43%
- viability, T/C (second compound 3.16 µM, first compound 3.16 µM): 2.9%
- viability, T/C (second compound 3.16 µM, first compound 10 µM): 3.42%
- viability, T/C (second compound 10 µM, first compound 0.0316 µM): 3.69%
- viability, T/C (second compound 10 µM, first compound 0.1 µM): 4.56%
- viability, T/C (second compound 10 µM, first compound 0.316 µM): 5.4%
- viability, T/C (second compound 10 µM, first compound 1 µM): 4.41%
- viability, T/C (second compound 10 µM, first compound 3.16 µM): 4.37%
- viability, T/C (second compound 10 µM, first compound 10 µM): 2.69%

SMILES: CCCS(=O)(=O)Nc1ccc(F)c(C(=O)c2c[nH]c3ncc(-c4ccc(Cl)cc4)cc23)c1F
- viability, T/C (compound 0.0316 µM): 105% and 112%
- viability, T/C (compound 0.1 µM): 105% and 113%
- viability, T/C (compound 0.316 µM): 112% and 123%
- viability, T/C (compound 1 µM): 110% and 105%
- viability, T/C (compound 3.16 µM): 116% and 99%
- viability, T/C (compound 10 µM): 84.8% and 79.7%
- IC50 (curve of compound): > 10000 nM

SMILES: NC(=O)C(=Cn1cnc(-c2cc(C(F)(F)F)cc(C(F)(F)F)c2)n1)c1cncnc1 + CN1CCN(c2cc(C(=O)Nc3cc4cc(-c5cnn(C)c5)ccc4cn3)ccn2)CC1
- IC50 [1]: 907 nM
- IC50 [2]: 365 nM
- IC50 [3]: < 9.49 nM
- IC50 [4]: < 9.49 nM
- IC50 [5]: < 9.49 nM
- IC50 [6]: < 9.49 nM
- viability, T/C (second compound 0.0316 µM, first compound 0.00949 µM): 99.5%
- viability, T/C (second compound 0.0316 µM, first compound 0.03 µM): 100%
- viability, T/C (second compound 0.0316 µM, first compound 0.0949 µM): 71.5%
- viability, T/C (second compound 0.0316 µM, first compound 0.3 µM): 58.4%
- viability, T/C (second compound 0.0316 µM, first compound 0.949 µM): 59.3%
- viability, T/C (second compound 0.0316 µM, first compound 3 µM): 30%
- viability, T/C (second compound 0.1 µM, first compound 0.00949 µM): 67.1%
- viability, T/C (second compound 0.1 µM, first compound 0.03 µM): 64.7%
- viability, T/C (second compound 0.1 µM, first compound 0.0949 µM): 60.4%
- viability, T/C (second compound 0.1 µM, first compound 0.3 µM): 52.1%
- viability, T/C (second compound 0.1 µM, first compound 0.949 µM): 38.6%
- viability, T/C (second compound 0.1 µM, first compound 3 µM): 17%
- viability, T/C (second compound 0.316 µM, first compound 0.00949 µM): 23.6%
- viability, T/C (second compound 0.316 µM, first compound 0.03 µM): 24%
- viability, T/C (second compound 0.316 µM, first compound 0.0949 µM): 20.3%
- viability, T/C (second compound 0.316 µM, first compound 0.3 µM): 12.3%
- viability, T/C (second compound 0.316 µM, first compound 0.949 µM): 5.84%
- viability, T/C (second compound 0.316 µM, first compound 3 µM): 1.04%
- viability, T/C (second compound 1 µM, first compound 0.00949 µM): 2.31%
- viability, T/C (second compound 1 µM, first compound 0.03 µM): 2.24%
- viability, T/C (second compound 1 µM, first compound 0.0949 µM): 4.13%
- viability, T/C (second compound 1 µM, first compound 0.3 µM): 2.36%
- viability, T/C (second compound 1 µM, first compound 0.949 µM): 1.39%
- viability, T/C (second compound 1 µM, first compound 3 µM): 0.76%
- viability, T/C (second compound 3.16 µM, first compound 0.00949 µM): 2.18%
- viability, T/C (second compound 3.16 µM, first compound 0.03 µM): 4.18%
- viability, T/C (second compound 3.16 µM, first compound 0.0949 µM): 3.49%
- viability, T/C (second compound 3.16 µM, first compound 0.3 µM): 1.2%
- viability, T/C (second compound 3.16 µM, first compound 0.949 µM): 0.81%
- viability, T/C (second compound 3.16 µM, first compound 3 µM): 1.01%
- viability, T/C (second compound 10 µM, first compound 0.00949 µM): 2.14%
- viability, T/C (second compound 10 µM, first compound 0.03 µM): 1.92%
- viability, T/C (second compound 10 µM, first compound 0.0949 µM): 1.56%
- viability, T/C (second compound 10 µM, first compound 0.3 µM): 1.44%
- viability, T/C (second compound 10 µM, first compound 0.949 µM): 2%
- viability, T/C (second compound 10 µM, first compound 3 µM): 0.3%

SMILES: C=CC(=O)Nc1cc(Nc2nccc(-c3cn(C)c4ccccc34)n2)c(OC)cc1N(C)CCN(C)C
- viability, T/C (compound 0.000949 µM): 103% and 92.1%
- viability, T/C (compound 0.003 µM): 80.7% and 91.7%
- viability, T/C (compound 0.00949 µM): 97.6% and 86%
- viability, T/C (compound 0.03 µM): 90.5% and 83.2%
- viability, T/C (compound 0.0949 µM): 81.3% and 78.3%
- viability, T/C (compound 0.3 µM): 87.5% and 75.6%
- IC50 (curve of compound): > 300 nM
